Data as given in patent US11331294B2, “Benzoquinone derivative E3330 in combination with chemotherapeutic agents for the treatment of bladder cancer” (Indiana University Research and Technology Corporation, priority 2007, dated 2022).

Tests used:
[1] = tested on: T24 human bladder cancer cells; assay: T24 subcutaneous flank xenograft; assay type: in vivo, athymic nude mice; details: for tumor weight at sacrifice: ip every 12 hours, vehicle 1.0±0.2 g; for tumor growth compared to vehicle control / reduction in survivin expression in harvested tumors: ip twice daily
Description: […] T24 human bladder cancer cells were grown in conditions described above and harvested with 0.05% Trypsin, centrifuged, and resuspended in a 50:50 solution of Matrigel: RPMI medium. For each subcutaneous tumor, a 100 μl volume of this suspension was implanted in the hind flank of […]. […] BrdU was injected into the animals 2 hours prior to sacrifice and tumor tissues were harvested and split into either snap frozen tissues for protein harvest and molecular analysis or fixed in formalin and processed for histological analysis, and then analyzed for survivin, Cyclin D1 levels (immunofluorescence and immunoblotting) for target protein assessment and BrdU incorporation (immunofluorescence).
Prior to sacrifice, mice were injected with BrdU and BrdU incorporation was visualized and quantitated via red fluorescence.

UC3 cells = assay: Methylene blue cell growth assay UC3; assay type: cell-based; details: Homo sapiens, read-out: cell growth-inhibitory IC50
Description: FIGS. 31A & 31B. Treatment with APE1/Ref-1 inhibitors potently blocks bladder cancer cell proliferation and activated Caspase 3/7. […] The IC50 values for FIG. 31A were determined using the methylene blue assay, n=4. […] T24 and UC3 cells were treated with APX2009 and APX2014 at the IC50 and IC90 and monitored over time for activation of capsase 3/7 by an increase in red fluorescence. Time course graphs are shown in FIG. 31B and representative images at 48 hr are shown in FIG. 32A (described more fully below), n=3-4.
FIGS. 36A-36H. […] In cytokine-induced T24 and UC3 cells NFκB-driven luciferase (FIG. 36A), STAT3-driven luciferase (FIG. 36B), and AP-1-driven luciferase (FIG. 36C) were quantified and normalized via Renilla following treatment with the corresponding cell growth-inhibitory IC50 concentrations. T24 cells were treated with APX2009 (8.5 μM) and APX2014 (6.5 μM), and UC3 cells were treated with APX2009 (6.1 μM) and APX2014 (4.6 μM) for 24 h. (*-p<0.05 APX treated vs vehicle, n=4). […] In the panels of FIGS. 36F & 36G, co-expression of survivin and APE1/Ref-1 was analyzed in superficial (FIG. 36F) and invasive human bladder tumors (FIG. 36G) in patients, and found nearly universal overlap of positivity in both in human samples. This was also true in cisplatin-refractory patients from the tissue microarray specimens (FIG. 36H). […]

STAT3 = assay: STAT3-driven luciferase reporter; assay type: cell-based, human; details: T24 and UC3 cells induced with IL-6, IC50 concentration, 24 h
Description: FIGS. 36A-36H. […] In cytokine-induced T24 and UC3 cells NFκB-driven luciferase (FIG. 36A), STAT3-driven luciferase (FIG. 36B), and AP-1-driven luciferase (FIG. 36C) were quantified and normalized via Renilla following treatment with the corresponding cell growth-inhibitory IC50 concentrations. T24 cells were treated with APX2009 (8.5 μM) and APX2014 (6.5 μM), and UC3 cells were treated with APX2009 (6.1 μM) and APX2014 (4.6 μM) for 24 h. (*-p<0.05 APX treated vs vehicle, n=4). […] In the panels of FIGS. 36F & 36G, co-expression of survivin and APE1/Ref-1 was analyzed in superficial (FIG. 36F) and invasive human bladder tumors (FIG. 36G) in patients, and found nearly universal overlap of positivity in both in human samples. This was also true in cisplatin-refractory patients from the tissue microarray specimens (FIG. 36H).
The transcriptional activity of NFκB, STAT3, and AP-1 is under redox control by APE1/Ref-1. Therefore, NFκB, STAT3, or AP-1 transcriptional activity was quantified following treatment with APE1/Ref-1 redox inhibitors (FIGS. 36A-36C).

bladder cancer cells = assay: BrdU incorporation assay in cultured cells; assay type: cell-based; details: IC50 concentration, 24 hours; control 11.2%±0.84
Description: To determine the proliferation rate of cells in response to APE1/Ref-1 redox inhibitors, cells were grown in the culture conditions described above and treated with inhibitors as described above, in chamber slides. After 24 hours in culture with inhibitors or vehicle, all cells were treated with 3.1 μg/ml BrdU (in sterile PBS; 0.1%) for one hour. Cells were fixed and permeablized with 4% paraformaldehyde and stained for BrdU incorporation with the antibody and methodology described in the Roche BrdU labeling Kit, (Risch-Rotkreuz, Switzerland), using secondary antibodies. Positive cells were captured on a Leica 6000 fluorescent microscope and were quantified relative to Hoechst positive nuclei (total live cells).
To further characterize this effect, it was analyzed whether this reduced cell number was due to decreases in proliferation, increases in apoptosis, or both.

endothelial cells = assay: In vitro tube formation assay; assay type: cell-based
Text: In vitro tube formation assay.

MCF-7 tumor cells = assay: MTS cell survival assay MCF-7; assay type: cell-based, human; details: about 24 or 72 h
Description: Decreased cancer cell survival. MCF-7 or OVCAR-3 cells (about 2-4,000) were aliquoted into each well of a 96-well plate in triplicate and allowed to adhere overnight. APX3330 (RN3-3) was added to the cultures. After about 24 or 72 h, about 0.05 mg/mL 3-(4-5-Dimethylthiazol-2-yl)-5-(3-carboxymethoxyphenyl)-2-(4-sulfophenyl)-2H-tetrazolium salt (MTS) reagent was added to each well and incubated at about 37° C. for about 4 h followed by absorbance measurement at 490 nm. The values were standardized to wells containing media alone. […] Similar effects can be seen in multiple myeloma, prostate, non-small cell lung carcinoma, colon, and glioma derived cells.

multiple myeloma cells = assay: MTS assay of multiple myeloma cells, combinations (CalcuSyn); assay type: cell-based
Description: APX3330 in combination with chemotherapeutic Melphalan. […] Synergistic plots made using CalcuSyn software. APX3330 was either given alone or in combination with melphalan. As an indicator of DNA double stranded breaks (DSBs), the phosphorylation of histone H2AX at Ser^139 was measured with a phosphorylation-specific H2AX antibody from Upstate Cell Signaling Solutions (Waltham, Md.). Cells were treated with melphalan alone or melphalan plus APX3330. After drug treatment, exponentially growing cells were harvested, washed in cold PBS, and lysed in about 100 μL RIPA assay buffer as described above. Protein was quantified and electrophoresed in SDS gel-loading buffer on a 12% SDS-polyacrylamide gel. Mouse monoclonal anti-phosphohistone H2AX (about 1:1000) or anti-actin antibody (about 1:1000; as a loading control, LabVision Corp., NeoMarkers, Fremont, Calif.) was used to probe for protein levels as described previously. Bands were detected using a chemiluminescence kit from Roche Applied Biosciences (Indianapolis, Ind.). The bands were visualized using Bio-Rad Chemidoc XRS (Hercules, Calif.) and quantitated using Chemidoc software, Quantity One 4.6.1. […]
APX3330 in combination with Methoxyamine-multiple myeloma cells. […] Data was calculated using the CalcuSyn software which is based on the Chou-Talalay algorithm (Chou-Talalay; Advances in Enzyme Regulation 22, 27-55). […]

[2] = APX3330 50 mg/kg, APX2009 25 mg/kg
[3] = APX3330 50 mg/kg, APX2009 25 mg/kg, immunoblot

| SMILES | decrease in BrdU+ cells in tumors ([1]; APX2009 25 mg/kg ip twice daily) [%] | tumor weight at sacrifice [1, 2] [g] | tumor growth compared to vehicle control [1, 2] | reduction in survivin expression in harvested tumors [1, 3] [%] | ratio of cleaved caspase 3 to total caspase 3 in harvested tumors [1, 3] | IC50 (UC3 cells) [µM] | STAT3 transcriptional activity (STAT3) | BrdU-positive cells (bladder cancer cells) | tube formation, combination of AVASTIN and APX3330 (endothelial cells; combination use with AVASTIN) | formation of blood-vessel-like tubules (endothelial cells; dose dependent) | killing of MCF-7 tumor cells (MCF-7 tumor cells) | killing of multiple myeloma cells in combination with melphalan (multiple myeloma cells; combination with melphalan, 72 hours) | killing of multiple myeloma cells in combination with methoxyamine (multiple myeloma cells; combination with methoxyamine) |
| --- | --- | --- | --- | --- | --- | --- | --- | --- | --- | --- | --- | --- | --- |
| CCC/C(=C\C1=C(OC)C(=O)c2ccccc2C1=O)C(=O)N(CC)CC [APX2009, [(2E)-2-[(3-methoxy-1,4-dioxo-1,4-dihydronaphthalen-2-yl)methylidene]-N,N-diethylpentanamide]] | 60 | 0.37 ± 0.14 | significantly reduced tumor growth | 64 | increase in the ratio of cleaved caspase 3 | 6.1 | significantly blocked | 6.9%±0.58 |  |  |  |  |  |
| CCCCCCCCC/C(=C\C1=C(C)C(=O)C(OC)=C(OC)C1=O)C(=O)O [APX3330] |  | 0.43 ± 0.10 | significantly reduced tumor growth | 42 |  |  |  | 7.8%±0.64 | synergistically more effective than either alone | prevented formation of blood-vessel-like tubules | dose dependently killed | synergistically enhance the killing of multiple myeloma cells | enhanced killing of multiple myeloma cells |
